{"source": "paper PMC11188489", "about": "“Pharmacokinetic assessment of tacrolimus in combination with deoxyschizandrin in rats” (Frontiers in Pharmacology, 2024)", "key": {"[1]": {"test": "Pharmacokinetics of deoxyschizandrin in rats after single and multiple administrations (UHPLC-MS/MS of plasma)", "format": "in vivo, SD rats", "details": "for AUMC0→t / AUC(0-t) / AUC(0-inf) / Cmax / MRT / Tmax / half-life: rat plasma; for AUC(0-t) / AUC(0-inf) / Cmax / MRT / Tmax / half-life: male, SD, rat, plasma", "protocol": "The mobile phase A was acetonitrile, and mobile phase B was 0.1% formic acid in water, and the initial mobile phase of gradient elution program was consisted of 60% phase A and 40% phase B. The sample injection volume was set at 10 μL. Gradient elution program was supplied in Supplementary Table S1.\nThe mass spectrometry detection was achieved on an Agilent 6460A mass spectrometer with ESI source. […] The settings of the mass spectrometer source were as follows: capillary voltage 4,000 V, sheath gas flow 12 L/min, temperature 400°C, dry gas (nitrogen) flow 10 L/min and temperature 350°C, nebulizer pressure 45 psi. All analytes were detected in positive ionization mode. Collision gas (high purity liquid nitrogen) was set at 0.25 MPa. The structures of both two analytes and IS are display in Figure 1.\nThe pretreatment was performed for the plasma sample by one-step protein precipitation, Briefly, 100 μL sample was transferred into a 1.5 mL EP tube prior to adding with 300 μL methanol(containing 200 ng/mL IS). The mixture was vortex-mixed for 30 s before centrifugation at 17,400 g for 10 min at room temperature, and 100 μL of the supernatant was diluted with 100 μL of acetonitrile (v/v, 1:1) Then, a 10 μL aliquoted of diluted solution was injected into the UHPLC-MS/MS system for analysis.\nThe protocol of the animal study was approved by the Experimental Animal Ethics Committee of the Shanghai University of Traditional Chinese Medicine. Specific Pathogen Free (SPF) grade SD rats, male, 8 weeks old, 200–250 g, were obtained from the animal experiment center of Shanghai University of Traditional Chinese Medicine. After passing quarantine, the rats were adaptive fed for 2 days. Rats were fasted for 12–14 h, followed by the initiation of pharmacokinetic study of Tac and deoxyschizandrin. This animal study was carried out in accordance with the National Institutes of Health Guide for the Care and Use of Laboratory animals.\n(§1) In this study, 42 rats were divided equally into seven groups of six rats each, numbered NG2201-NG2207. Among them, the NG2201 and NG2202 group was dosed with 150 mg/kg deoxyschizandrin alone to study the PK of deoxyschizandrin in rats after single and multiple doses; the NG2203 group was administrate dosed with 1.0 mg/kg of Tac; the NG2204-NG2206 groups were dosed with 75, 150, and 300 mg/kg of deoxyschizandrin plus 1.0 mg/kg Tac, respectively, and the NG2207 group was dosed with the Wuzhi capsule (approximately equal to 150 mg/kg of deoxyschizandrin) plus 1.0 mg/kg of Tac ([Teng et al., 2022]). The detailed dosing regimen is shown in Table 2, and all dose in this experiment were calculated according to clinical dose. Blood samples (approximately 300 μL for each) for PK analysis were collected into lithium–heparin tubes. The plasma sampling schedules are outlined below: Blood samples were drawn pre-dose, at 5, 10, 20 and 30 min, and at 1, 1.5, 2, 4, 8 and 24 h after drug administration. The blood samples were centrifuged at 5,000 g for 15 min at 4°C to collect plasma samples, which were placed −80 refrigerator.\nThe rat plasma collected from each group was pretreated according to the method in section 2.5, and exposure levels of Tac and deoxyschizandrin were determined using the above established UHPLC-MS/MS method and the PKs were calculated using DAS software using non-compartment model (version 2.0, China Pharmacological Society). The data were presented as mean ± SD."}, "[2]": {"test": "Stability of the two analytes in rat plasma under different storage conditions", "format": "in vitro ADME", "details": "n=5", "protocol": "To prepare the stock solution, approximately 2.00 mg of Tac, deoxyschizandrin and IS were accurately weighed and dissolved in methanol, respectively. The stock solutions of Tac and deoxyschizandrin with a final concentration of 1.00 mg/mL was obtained, and the IS stock solution was diluted to 100.00 ng/mL using methanol before use. The stock solutions were aliquoted and stored at −80°C. Combined working solutions were prepared by diluting the stock solution using 10% aqueous methanol at the following concentrations: 5.00, 10.00, 20.00, 50.00, 100.00, 200.00, 500.00, 1,000.00, and 2,000.00 ng/mL. Blank rat plasma was used to prepare the calibration standards. Quality-control (QC) samples of two analytes were prepared separately in the same manner at three concentrations, namely, 10 (low concentration), 100 (middle), 1,000 ng/mL (high), and all QC samples were stored at −80°C.\nThe methodology validation was completed according to FDA guidelines and Chinese Pharmacopoeia (2015 edition), and the linearity, inter- and intra-precision and accuracy, matrix effect and extraction recovery, stability and specificity of this method were validated according to previous study ([Lu et al., 2022]; [Wang et al., 2022]; [Shu et al., 2016])."}, "[3]": {"test": "Observation of adverse reactions in rats during 12 days of continuous administration", "format": "in vivo", "details": "150 mg/kg deoxyschizandrin oral", "protocol": "as §1, with “refrigerator. […]” for “refrigerator.”"}, "[4]": {"details": "po, 150 mg/kg, NG2201: 150 mg/kg deoxyschizandrin single, D1-D2"}, "[5]": {"details": "po, 150 mg/kg, NG2202: 150 mg/kg deoxyschizandrin multiple (12 days), D11-D12"}}, "note": "Entries after “also recorded” stand apart in the source; their conditions may differ.", "data": [{"molecule": "COc1cc2c(c(OC)c1OC)-c1c(cc(OC)c(OC)c1OC)C[C@H](C)[C@H](C)C2", "note": "[deoxyschizandrin]", "values": [{"measurement": "increase of C max of deoxyschizandrin after consecutive 12 days of administration", "setting": "[1]; 150 mg/kg, multiple vs single dose, rats", "value": "about 1.5 fold"}, {"measurement": "AUMC0→t", "setting": "[1]; NG2201: 150 mg/kg deoxyschizandrin single, D1-D2", "value": "4,088.71 ± 1,056.37 ng. h^2/mL"}, {"measurement": "AUMC0→t", "setting": "[1]; NG2202: 150 mg/kg deoxyschizandrin multiple (12 days), D11-D12", "value": "13,360.23 ± 8,009.79 ng. h^2/mL"}, {"measurement": "AUC(0-t)", "setting": "[1]; oral, 150 mg/kg, NG2201: 150 mg/kg deoxyschizandrin, first day", "value": "786 ± 174", "unit": "ng·h/mL"}, {"measurement": "AUC(0-t)", "setting": "[1]; oral, 150 mg/kg, NG2202: after 12 days of continuous administration of 150 mg/kg deoxyschizandrin", "value": "1810 ± 707", "unit": "ng·h/mL"}, {"measurement": "AUC(0-inf)", "setting": "[1]; [4]", "value": "806 ± 176", "unit": "ng·h/mL"}, {"measurement": "AUC(0-t)", "setting": "[1]; [4]", "value": "786 ± 174", "unit": "ng·h/mL"}, {"measurement": "Cmax", "setting": "[1]; [4]", "value": "148 ± 23.2", "unit": "ng/mL"}, {"measurement": "MRT", "setting": "[1]; [4]", "value": "5.17 ± 0.33", "unit": "h"}, {"measurement": "Tmax", "setting": "[1]; [4]", "value": "0.92 ± 0.2", "unit": "h"}, {"measurement": "half-life", "setting": "[1]; [4]", "value": "4.48 ± 0.53", "unit": "h"}, {"measurement": "AUC(0-inf)", "setting": "[1]; [5]", "value": "2410 ± 1720", "unit": "ng·h/mL"}, {"measurement": "AUC(0-t)", "setting": "[1]; [5]", "value": "1810 ± 707", "unit": "ng·h/mL"}, {"measurement": "Cmax", "setting": "[1]; [5]", "value": "229 ± 54.8", "unit": "ng/mL"}, {"measurement": "MRT", "setting": "[1]; [5]", "value": "6.95 ± 1.42", "unit": "h"}, {"measurement": "Tmax", "setting": "[1]; [5]", "value": "1.5 ± 1.23", "unit": "h"}, {"measurement": "half-life", "setting": "[1]; [5]", "value": "9.1 ± 7.83", "unit": "h"}, {"measurement": "Auto-sampler stability (24h, 4℃) Mean ± SD", "setting": "[2]; Nominal Conc. 10 ng/mL", "value": "10.23±0.93"}, {"measurement": "Bench-top stability (8h, RT) Mean ± SD", "setting": "[2]; Nominal Conc. 10 ng/mL", "value": "10.63±0.83"}, {"measurement": "Frozen-thaw stability (3 times) Mean ± SD", "setting": "[2]; Nominal Conc. 10 ng/mL", "value": "10.45±1.01"}, {"measurement": "Long-term stability (1 month, -80℃) Mean ± SD", "setting": "[2]; Nominal Conc. 10 ng/mL", "value": "10.37±0.25"}, {"measurement": "Auto-sampler stability (24h, 4℃) Mean ± SD", "setting": "[2]; Nominal Conc. 100 ng/mL", "value": "104.49±5.32"}, {"measurement": "Bench-top stability (8h, RT) Mean ± SD", "setting": "[2]; Nominal Conc. 100 ng/mL", "value": "102.39±2.82"}, {"measurement": "Frozen-thaw stability (3 times) Mean ± SD", "setting": "[2]; Nominal Conc. 100 ng/mL", "value": "111.56±12.48"}, {"measurement": "Long-term stability (1 month, -80℃) Mean ± SD", "setting": "[2]; Nominal Conc. 100 ng/mL", "value": "101.86±11.38"}, {"measurement": "Auto-sampler stability (24h, 4℃) Mean ± SD", "setting": "[2]; Nominal Conc. 1000 ng/mL", "value": "1024.65±13.44"}, {"measurement": "Bench-top stability (8h, RT) Mean ± SD", "setting": "[2]; Nominal Conc. 1000 ng/mL", "value": "1014.96±11.94"}, {"measurement": "Frozen-thaw stability (3 times) Mean ± SD", "setting": "[2]; Nominal Conc. 1000 ng/mL", "value": "1050.50±50.54"}, {"measurement": "Long-term stability (1 month, -80℃) Mean ± SD", "setting": "[2]; Nominal Conc. 1000 ng/mL", "value": "1012.51±45.24"}, {"measurement": "adverse reactions", "setting": "[3]", "value": "No adverse reactions occurred; also recorded: no adverse effects were demonstrated"}]}]}
